PMC10608985, “Retention Behavior of Anticancer Thiosemicarbazides in Biomimetic Chromatographic Systems and In Silico Calculations” (Molecules, 2023)

How the values were obtained:
[1] = HPLC lipophilicity on IAM (immobilized artificial membrane, phosphatidylcholine) stationary phase; assay type: physicochemical; details: pH 7.4; for Log k IAM: Table S2
Outline: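 Rexchrom IAM.PC.DD2 column with ACN/20 mM phosphate buffer pH 7.4 (0.15 M KCl), ACN fraction 0.05–0.4 v/v at 0.05 steps, 1 mL/min, UV 280 nm, room temperature; t0 from citric acid. log kw and slope S extrapolated via Soczewiński–Wachtmeister equation.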

[2] = set-up: method as in Kozyra et al. [31]; details: MeOH/20 mM acetate buffer, pH 7.4, ref Kozyra et al. [31], cited from earlier work
[3] = target: T1, human serum albumin (HSA) (Homo sapiens, UniProt P02768); assay: HPLC on immobilized HSA column, affinity and % plasma–protein binding; assay type: in vitro ADME
T1 construct: purchased Chiralpac
Outline: (§1)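 Retention (log k) on immobilized-protein HPLC columns, 50 mM ammonium acetate pH 7.4 with propan-2-ol (85/15 for AGP), UV 280 nm, room temperature. log K read from drug calibration curves, then converted to %PPB.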

[4] = HPLC lipophilicity on cholesterol (Chol) stationary phase; assay type: physicochemical; details: pH 7.4; for Log k Chol: Table S3
Outline: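 Cholesterol-bonded column run isocratically with MeOH/20 mM acetate buffer at pH 7.4, MeOH fraction 0.3–0.8 (v/v), 0.35 mL/min, room temperature, UV 280 nm. t0 from citric acid; log kw (intercept) and slope S from Soczewiński–Wachtmeister regression of log k against modifier content.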

[5] = tested on: α1-acid glycoprotein (AGP); assay: HPLC on immobilized AGP column, affinity and % plasma–protein binding; assay type: in vitro ADME, human
Outline: as §1

T1 sequence (P02768 25-609): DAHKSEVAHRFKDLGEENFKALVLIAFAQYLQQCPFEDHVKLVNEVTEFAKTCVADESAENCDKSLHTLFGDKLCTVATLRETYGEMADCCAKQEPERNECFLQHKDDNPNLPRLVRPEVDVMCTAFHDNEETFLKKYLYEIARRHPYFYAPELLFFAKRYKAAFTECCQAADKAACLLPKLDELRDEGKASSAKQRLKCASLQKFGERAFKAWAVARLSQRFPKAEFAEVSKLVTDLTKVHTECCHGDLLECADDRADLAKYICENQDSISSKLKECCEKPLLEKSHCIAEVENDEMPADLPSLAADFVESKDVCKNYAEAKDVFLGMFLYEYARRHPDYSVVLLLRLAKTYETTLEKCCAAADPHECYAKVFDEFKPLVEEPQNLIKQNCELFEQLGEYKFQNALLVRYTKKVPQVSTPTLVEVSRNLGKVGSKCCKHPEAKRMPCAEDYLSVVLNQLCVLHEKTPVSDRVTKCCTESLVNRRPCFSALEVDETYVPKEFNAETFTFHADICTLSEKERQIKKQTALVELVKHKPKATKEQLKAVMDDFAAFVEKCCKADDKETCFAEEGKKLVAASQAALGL

Log k IAM ([1]; ACN 0.05 v/v in mobile phase): 1.193 | Log k IAM ([1]; ACN 0.10 v/v in mobile phase): 0.876 | Log k IAM ([1]; ACN 0.15 v/v in mobile phase): 0.565 | Log k IAM ([1]; ACN 0.20 v/v in mobile phase): 0.312 | Log k IAM ([1]; ACN 0.25 v/v in mobile phase): 0.024 | Log k IAM ([1]; ACN 0.30 v/v in mobile phase): -0.274 | Log k IAM ([1]; ACN 0.35 v/v in mobile phase): -0.441 | log kw IAM ([1]; intercept, linear extrapolation to water, ACN/20 mM phosphate buffer): 1.4283 | -S IAM ([1]; slope of Soczewiński–Wachtmeister equation, ACN/20 mM phosphate buffer): 5.5312 | log K HSA ([3]; binding equilibrium constant from calibration curve (Equation 8) of log k HSA): 1.1581 | fraction unbound ([3]; human, pH 7.4, % plasma–protein binding converted from log K HSA (Equation 10), read-out: %PPB HSA (converted)): 0.056 | log k HSA ([3]; retention on HSA column, 50 mM ammonium acetate pH 7.4 / propan-2-ol 85/15 (v/v)): 0.8615 | Log k Chol ([4]; MeOH 0.35 v/v in mobile phase): 0.957 | Log k Chol ([4]; MeOH 0.40 v/v in mobile phase): 0.699 | Log k Chol ([4]; MeOH 0.45 v/v in mobile phase): 0.487 | Log k Chol ([4]; MeOH 0.50 v/v in mobile phase): 0.184 | Log k Chol ([4]; MeOH 0.60 v/v in mobile phase): -0.057 | Log k Chol ([4]; MeOH 0.80 v/v in mobile phase): -1.065 | log kw Chol ([4]; intercept, linear extrapolation to water, MeOH/20 mM acetate buffer): 2.4598 | -S Chol ([4]; slope of Soczewiński–Wachtmeister equation, MeOH/20 mM acetate buffer): 4.3726 | log K AGP ([5]; binding equilibrium constant from calibration curve (Equation 9) of log k AGP): 0.5586 | fraction unbound ([5]; human, pH 7.4, % plasma–protein binding converted from log K AGP (Equation 10), read-out: %PPB AGP (converted)): 0.209 | log k AGP ([5]; retention on AGP column, 50 mM ammonium acetate pH 7.4 / propan-2-ol 85/15 (v/v)): 0.4328
SMILES: O=C(COc1ccccc1)NNC(=S)Nc1cccc(F)c1 [Compound 5]
log kw C-18 ([2]; intercept of Soczewiński–Wachtmeister equation (water as mobile phase)): 2.4592 | -S C-18 ([2]; slope of Soczewiński–Wachtmeister equation): 4.7921
